From PubChem BioAssay (NCI) come the findings set out here.

This assay deals with MDA-MB-468 breast. In words: growth of human tumour cells (NCI), 48 h.

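Where inhibition never reached the appropriate level, the endpoint shown equals the highest concentration tested. Otherwise, values were interpolated linearly from a five-concentration, 48-hour dose response in 96-well plates. Abbreviation: GI50, concentration required for 50% inhibition of growth. Definition used: TGI = concentration required for complete inhibition of growth.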

Regarding `Cn1c(/C=C/[N+](=O)[O-])cc2ccccc21`, the GI50 is 1770 nM and the TGI was found to be 3370 nM.
Consider `CCN(CC)Cc1c(/C=C\c2cc(OC)c(OC)c(OC)c2)ccc(OC)c1O`, for which the GI50 was 7970 nM and the TGI worked out at 34000 nM.
Take `CN1C/C=C/CCOc2cccc(c2)-c2ccnc(n2)Nc2cccc(c2)C1`: the GI50 is 36.6 nM and the TGI came out at 107 nM.
In the case of `Cn1c(=O)c(Oc2ccc(F)cc2F)cc2cnc(NC3CCS(=O)(=O)CC3)nc21`, the GI50 was more than 25000 nM and the TGI is more than 25000 nM.
Turning to `COc1ccc(Nc2cc(C)nc(NCCCNc3ccnc4cc(Cl)ccc34)n2)cc1`, the GI50 is 1390 nM and the TGI came out at 2790 nM.
On the same counts, the results for `COC1=CC(c2ccc[nH]2)=N/C1=C\c1[nH]c(C)c(C(=O)CCCCC(=O)Oc2ccc3c(c2)CCC2C3CC[C@]3(C)[C@@H](O)CC[C@@H]23)c1C` (stereo partly specified) are 4920 nM and more than 100000 nM.
On the same counts, the results for `CC(=O)OC1CC2C3CCC4C[C@@H](NC(=O)C=C(C)C)CC[C@]4(C)C3CC[C@]2(C)[C@H]1C(C)N(C)C` (stereo partly specified) are 800 nM and 2370 nM.
With `COc1ccc(/C=C/C(=O)c2ccc(OC)c(OC)c2)cc1O`, the GI50 is 3590 nM and the TGI stood at 19600 nM.
In the same order, the values of `CC(=O)Oc1ccc(/C(=C(\C)c2ccc(Cl)cc2)c2ccc(OCCN3CCCCC3)cc2)cc1` are 1450 nM and 3210 nM.
Regarding `O=C(Nc1n[nH]c2nnc(-c3cccnc3)cc12)C1CC1`, the GI50 was 805 nM and the TGI stood at 5020 nM.
As to `Oc1cc2ccccc2c(-c2c(O)c(O)cc3ccccc23)c1O`, the GI50 is 1090 nM and the TGI worked out at 17200 nM.
Consider `COc1ccc(N2CCN(C3=C(Cl)C(=O)c4ncccc4C3=O)CC2)cc1`, for which the GI50 was 1840 nM and the TGI was found to be 3500 nM.
`COc1cc(/C=C/C(=O)N2CCN(C(=O)c3cc(OC)c(OC)c(OC)c3)CC2)ccc1OCCCOc1cc2c(cc1OC)C(=O)N1CCC[C@H]1C=N2`: the GI50 was 102 nM and the TGI worked out at 336 nM.
For the molecule `CC1(C)[C@@H](OC(=O)CCC(=O)O)CC[C@]2(C)[C@H]3C(=O)C=C4[C@@H]5C[C@@](C)(C(=O)O)CC[C@]5(C)CC[C@@]4(C)[C@]3(C)CC[C@@H]12`, the GI50 is 78600 nM and the TGI came to 189000 nM.
On to `Cc1ccc(NC(=O)c2sc3nc4c(cc3c2N)C(=O)CCC4)cc1C`, for which the GI50 was 314 nM and the TGI was more than 100000 nM.
`COc1cc(C(=O)N/N=C/c2ccc(N(C)C)cc2)cc(OC)c1OC`: the GI50 is 225 nM and the TGI was determined as 1190 nM.
In the case of `O=C1OCC2=C1C(c1ccc(Cl)c(Cl)c1)c1cc3c(cc1N2CCO)CCC3` (stereo unspecified), the GI50 is 109 nM and the TGI came out at 350 nM.
On to `COc1cc(-c2cc(-c3cc(OC)c(OC)c(OC)c3)nc3nc(N)[nH]c(=O)c23)ccc1Oc1ccnc2cc(Cl)ccc12`, for which the GI50 was 3240 nM and the TGI is more than 100000 nM.
On the same counts, the results for `CCN(CC)C1CCC(Nc2c(C(C)=O)cnc3ccc(-c4ccc(O)c(Cl)c4)cc23)CC1` (stereo unspecified) are 871 nM and 15800 nM.
In the same order, the values of `CCCCCCCCCCCCCCCCC(=O)O.CCCCCCCCCCCCCCCCCC(=O)O.CCCCCCCCCCCCCCCCCC(=O)O.CCCCCCCCCCCCCCCCCC(=O)O.CCCCCCCCCCCCCCCCCC(=O)O.CO[CH-]OC12COC1CC(O)C1(C)C(O)C(OC(C)O)C3=C(C)C(OC(=O)C(O)C([NH-])c4ccccc4)CC(O)(C(OC(=O)c4ccccc4)C21)C3(C)C.[Cu+].[Zn].[Zn].[Zn].[Zn].[Zn]` (stereo unspecified) are 3.38 nM and 16.6 nM.
Turning to `COc1ccc(C2=NN(C(=O)c3cc(OC)c(OC)c(OC)c3)C(c3ccc(N(C)C)cc3)C2)cc1` (stereo unspecified), the GI50 was 236 nM and the TGI was 644 nM.
With `O=c1oc2ccc(Br)cc2c(=O)n1-c1ccc(I)cc1F`, the GI50 was 547 nM and the TGI was found to be 2040 nM.
On the same counts, the results for `CC(=O)c1cc(C(=O)c2ccc3c(c2)Sc2ccccc2N3)c2cc(C)ccn12` are 66.3 nM and 7210 nM.
